Data reported in EP2042491A1, “Pyridazines as fungicides” (Bayer CropScience AG, priority 2007, dated 2009).
Read-outs that look alike come from different tables or passages of the source.

What was measured:
Leptosphaeria nodorum = Leptosphaeria nodorum test (wheat) / protective; format: in vivo; details: 1000 ppm active compound; protective spray on young wheat plants; evaluated 10 days after inoculation; 0% = as control, 100% = no infection
Source text: (§1) Zur Herstellung einer zweckmäßigen Wirkstoffzubereitung vermischt man 1 Gewichtsteil Wirkstoff mit den angegebenen Mengen Lösungsmittel und Emulgator und verdünnt das Konzentrat mit Wasser auf die gewünschte Konzentration.
(§2) Zur Prüfung auf protektive Wirksamkeit werden junge Pflanzen mit der Wirkstoffzubereitung in der angegebenen Aufwandmenge besprüht. Nach Antrocknen des Spritzbelages werden die Pflanzen mit einer Sporensuspension von Leptosphaeria nodor um besprüht. Die Pflanzen verbleiben 48 Stunden bei 20 °C und 100 % relativer Luftfeuchtigkeit in einer Inkubationskabine.
Die Pflanzen werden in einem Gewächshaus bei einer Temperatur von ca. 20 °C und einer relativen Luftfeuchtigkeit von 80 % aufgestellt.
(§3) 10 Tage nach der Inokulation erfolgt die Auswertung. Dabei bedeutet 0% ein Wirkungsgrad, der demjenigen der Kontrolle entspricht, während ein Wirkungsgrad von 100% bedeutet, daß kein Befall beobachtet wird.

Venturia inaequalis = Venturia inaequalis test (apple) / protective; format: in vivo; details: 100 ppm active compound; protective spray on young apple plants; evaluated 10 days after inoculation; 0% = as control, 100% = no infection
Source text: as §1
Zur Prüfung auf protektive Wirksamkeit werden junge Pflanzen mit der Wirkstoffzubereitung in der angegebenen Aufwandmenge besprüht. Nach Antrocknen des Spritzbelages werden die Pflanzen mit einer wäßrigen Konidiensuspension des Apfelschorferregers Venturia inaequalis inokuliert und verbleiben dann 1 Tag bei ca. 20 °C und 100% relativer Luftfeuchtigkeit in einer Inkubations-kabine.
Die Pflanzen werden dann im Gewächshaus bei ca. 21 °C und einer relativen Luftfeuchtigkeit von ca. 90% aufgestellt.
as §3

[1] = HPLC on reversed-phase C18, 40°C, 0.1% aqueous formic acid / acetonitrile, linear gradient 10-95% acetonitrile
Septoria tritici = Septoria tritici test (wheat) / protective; format: in vivo; details: 1000 ppm active compound; protective spray on young wheat plants; evaluated 21 days after inoculation; 0% = as control, 100% = no infection
Source text: as §1
as §2, with “Septoria tritici” for “Leptosphaeria nodor um”
Die Pflanzen werden in einem Gewächshaus bei einer Temperatur von ca. 15 °C und einer relativen Luftfeuchtigkeit von 80 % aufgestellt.
21 Tage nach der Inokulation erfolgt die Auswertung. Dabei bedeutet 0% ein Wirkungsgrad, der demjenigen der Kontrolle entspricht, während ein Wirkungsgrad von 100% bedeutet, daß kein Befall beobachtet wird.

Sphaerotheca fuliginea = Sphaerotheca fuliginea test (cucumber) / protective; format: in vivo; details: 500 ppm active compound; protective spray on young cucumber plants; evaluated 7 days after inoculation; 0% = as control, 100% = no infection
Source text: as §1
Zur Prüfung auf protektive Wirksamkeit bespritzt man junge Gurkenpflanzen mit der Wirkstoffzubereitung in der angegebenen Aufwandmenge. 1 Tag nach der Behandlung werden die Pflanzen mit einer Sporensuspension von Sphaerotheca fuliginea inokuliert. Anschließend werden die Pflanzen in einem Gewächshaus bei 70 % relativer Luftfeuchtigkeit und einer Temperatur von 23 °C aufgestellt.
7 Tage nach der Inokulation erfolgt die Auswertung. Dabei bedeutet 0 % ein Wirkungsgrad, der demjenigen der Kontrolle entspricht, während ein Wirkungsgrad von 100 % bedeutet, daß kein Befall beobachtet wird.

Alternaria solani = format: in vivo; details: 168 h, 500 ppm
Method: as §1
Zur Prüfung auf protektive Wirksamkeit bespritzt man junge Tomatenpflanzen mit der Wirkstoffzubereitung in der angegebenen Aufwandmenge. 1 Tag nach der Behandlung werden die Pflanzen mit einer Sporensuspension von Alternaria solani inokuliert und stehen dann 24h bei 100% rel. Feuchte und 20°C. Anschließend stehen die Pflanzen bei 96% rel. Luftfeuchtigkeit und einer Temperatur von 20 C.
7 Tage nach der Inokulation erfolgt die Auswertung. Dabei bedeutet 0 % ein Wirkungsgrad, der demjenigen der Kontrolle entspricht, während ein Wirkungsgrad von 100 % bedeutet, dass kein Befall beobachtet wird.

Pyricularia oryzae = format: in vivo; details: 500 ppm active compound; protective spray on young rice plants; evaluated 7 days after inoculation; 0% = as control, 100% = no infection
Botrytis cinerea = Botrytis cinerea test (bean) / protective; format: in vivo; details: 100 ppm active compound; protective spray on young bean plants; lesion size evaluated 2 days after inoculation; 0% = as control, 100% = no infection
Source text: as §1
Zur Prüfung auf protektive Wirksamkeit werden junge Pflanzen mit der Wirkstoffzubereitung in der angegebenen Aufwandmenge besprüht. Nach Antrocknen des Spritzbelages werden auf jedes Blatt 2 kleine mit Botrytis cinerea bewachsene Agarstückchen aufgelegt. Die inokulierten Pflanzen werden in einer abgedunkelten Kammer bei ca. 20 °C und 100% relativer Luftfeuchtigkeit aufgestellt.
2 Tage nach der Inokulation wird die Größe der Befallsflecken auf den Blättern ausgewertet. Dabei bedeutet 0% ein Wirkungsgrad, der demjenigen der Kontrolle entspricht, während ein Wirkungsgrad von 100% bedeutet, daß kein Befall beobachtet wird.

SMILES | Wirkungsgrad (Leptosphaeria nodorum) [%] | Wirkungsgrad (Venturia inaequalis) [%] | logP^a) ([1]; Table 2) | Wirkungsgrad (Septoria tritici) [%] | Wirkungsgrad (Sphaerotheca fuliginea) [%] | Wirkungsgrad (Alternaria solani) [%] | chromatographic logP (physchem) | Wirkungsgrad (Pyricularia oryzae) [%] | logP^a) ([1]; Table 1) | Wirkungsgrad (Botrytis cinerea) [%]
Cc1nnc(Cl)c(-c2c(F)cccc2Cl)c1Oc1ccc(Cl)cc1 [2-61, 3-Chlor-4-(2-chlor-6-fluorphenyl)-5-(4-chlorphenoxy)-6-methylpyridazin] | ≥ 70 | ≥ 70 | 4,13 | ≥ 70 |  |  |  |  |  | 
Cc1nnc(Cl)c(-c2c(F)cccc2Cl)c1N[C@H](C)C(C)C [1-100] |  |  |  |  | ≥ 70 | ≥ 70 | 3.22 | ≥ 70 |  | 
Cc1nnc(Cl)c(-c2c(F)cccc2Cl)c1OC1CCCCC1 [2-59] |  |  |  |  | ≥ 70 |  | 4.25 | ≥ 70 |  | 
Cc1nnc(Cl)c(-c2c(F)cccc2Cl)c1N1CCC(C)CC1 [1-93, 3-Chlor-4-(2-chlor-6-fluorphenyl)-6-methyl-5-(4-methylpiperidin-1-yl)pyridazin] | ≥ 70 | ≥ 70 |  | ≥ 70 |  | ≥ 70 | 4.11 | ≥ 70 | 4,11 | ≥ 70
